Laboratory results published in ChEMBL document CHEMBL1151947, “Synthesis, potency, and in vivo evaluation of 2-piperazin-1-ylquinoline analogues as dual serotonin reuptake inhibitors and serotonin 5-HT1A receptor antagonists” (J Med Chem, 2009).

Experiments:
[1] = target: T1, 5-hydroxytryptamine receptor 1A (Homo sapiens) (UniProt P08908); experiment: Antagonist activity at human 5HT1A receptor expressed in CHO cells assessed as inhibition of [35S]GTPgammaS binding relative to control; type: functional, cell-based
T1 sequence (whole entry): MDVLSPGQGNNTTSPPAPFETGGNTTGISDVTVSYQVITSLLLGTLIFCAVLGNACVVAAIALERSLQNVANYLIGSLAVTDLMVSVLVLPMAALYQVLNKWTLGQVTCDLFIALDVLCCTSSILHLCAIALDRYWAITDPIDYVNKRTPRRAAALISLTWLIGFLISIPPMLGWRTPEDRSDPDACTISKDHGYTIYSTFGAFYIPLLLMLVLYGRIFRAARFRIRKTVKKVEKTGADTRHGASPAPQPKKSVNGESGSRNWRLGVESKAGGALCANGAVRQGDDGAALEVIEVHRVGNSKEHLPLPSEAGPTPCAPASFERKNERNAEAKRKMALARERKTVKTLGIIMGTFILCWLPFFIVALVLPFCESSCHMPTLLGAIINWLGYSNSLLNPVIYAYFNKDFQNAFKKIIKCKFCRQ

D(2) dopamine receptor = D(2) dopamine receptor (Homo sapiens, UniProt P14416); experiment: Displacement of [3H]spiperone from human dopamine D2 receptor expressed in CHO cells; type: cell-based
D(3) dopamine receptor = D(3) dopamine receptor (Homo sapiens, UniProt P35462); experiment: Displacement of [3H]spiperone from human dopamine D3 receptor expressed in CHO cells; type: cell-based
Rattus norvegicus [2] = experiment: Initial plasma concentration in rat at 1 mg/kg, iv; type: ADME, organism-based; design: dose 1 mg/kg, route intravenous; conditions: in vivo
[3] = Elimination half life in rat at 1 mg/kg, iv; type: ADME, organism-based; design: dose 1 mg/kg, route intravenous; conditions: in vivo, read-out: beta t1/2 (converted)
Rattus norvegicus [4] = experiment: AUC in rat at 1 mg/kg, iv; type: ADME, organism-based, Plasma; design: dose 1 mg/kg, route intravenous; conditions: in vivo
[5] = Cmax in rat at 3 mg/kg, po; type: ADME, organism-based; design: dose 3 mg/kg, route oral; conditions: in vivo
[6] = Tmax in rat at 3 mg/kg, po; type: ADME, organism-based; design: dose 3 mg/kg, route oral; conditions: in vivo
[7] = Elimination half life in rat at 3 mg/kg, po; type: ADME, organism-based; design: dose 3 mg/kg, route oral; conditions: in vivo, read-out: beta t1/2 (converted)
[8] = AUC in rat at 3 mg/kg, po; type: ADME, organism-based; design: dose 3 mg/kg, route oral; conditions: plasma
[9] = Oral bioavailability in rat at 3 mg/kg; type: ADME, organism-based; conditions: in vivo
[10] = Cmax in rat at 10 mg/kg, po; type: ADME, organism-based; design: dose 10 mg/kg, route oral; conditions: in vivo
[11] = Elimination half life in rat at 10 mg/kg, po; type: ADME, organism-based; design: dose 10 mg/kg, route oral; conditions: in vivo, read-out: beta t1/2 (converted)
[12] = AUC in rat at 10 mg/kg, po; type: ADME, organism-based; design: dose 10 mg/kg, route oral; conditions: plasma
[13] = Oral bioavailability in rat at 10 mg/kg; type: ADME, organism-based; conditions: in vivo
Rattus norvegicus [14] = experiment: Antidepressant activity in rat assessed as increase in extracellular 5HT level in dorsal lateral frontal cortex at 30 mg/kg, po after 3 hrs by microdialysis assay relative to basal level; type: functional
Rattus norvegicus [15] = experiment: Antidepressant like activity in sc dosed rat resident-intruder model assessed as reduction of aggressive behavior level administered 30 mins prior to test; type: functional
Cytochrome P450 2A6 = target: T2, Cytochrome P450 2A6 (Homo sapiens, UniProt P11509); experiment: Inhibition of CYP2A6 in human liver microsomes upto 100 uM; type: ADME, Microsome
T2 sequence (P11509 whole entry): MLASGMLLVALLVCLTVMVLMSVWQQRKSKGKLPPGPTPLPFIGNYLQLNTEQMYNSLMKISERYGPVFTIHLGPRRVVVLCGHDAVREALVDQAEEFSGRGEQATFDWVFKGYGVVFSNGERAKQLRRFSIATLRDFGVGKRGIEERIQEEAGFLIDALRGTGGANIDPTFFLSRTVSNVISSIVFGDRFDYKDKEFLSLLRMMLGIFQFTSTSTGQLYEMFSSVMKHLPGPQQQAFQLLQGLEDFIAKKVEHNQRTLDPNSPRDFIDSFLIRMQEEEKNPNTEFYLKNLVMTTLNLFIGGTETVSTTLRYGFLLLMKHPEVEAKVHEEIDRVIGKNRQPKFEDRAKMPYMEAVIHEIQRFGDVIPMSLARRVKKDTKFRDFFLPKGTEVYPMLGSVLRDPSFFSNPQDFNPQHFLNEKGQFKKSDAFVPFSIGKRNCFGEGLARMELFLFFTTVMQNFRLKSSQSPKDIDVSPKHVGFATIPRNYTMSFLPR

Cytochrome P450 2D6 = Cytochrome P450 2D6 (Homo sapiens, UniProt P10635); experiment: Inhibition of CYP2D6 in human liver microsomes upto100 uM; type: ADME, Microsome
Cytochrome P450 2C9 = Cytochrome P450 2C9 (Homo sapiens, UniProt P11712); experiment: Inhibition of CYP2C9 in human liver microsomes; type: ADME, Microsome
Cytochrome P450 2C8 = target: T3, Cytochrome P450 2C8 (Homo sapiens, UniProt P10632); experiment: Inhibition of CYP2C8 in human liver microsomes; type: ADME, Microsome
T3 sequence (P10632 whole entry): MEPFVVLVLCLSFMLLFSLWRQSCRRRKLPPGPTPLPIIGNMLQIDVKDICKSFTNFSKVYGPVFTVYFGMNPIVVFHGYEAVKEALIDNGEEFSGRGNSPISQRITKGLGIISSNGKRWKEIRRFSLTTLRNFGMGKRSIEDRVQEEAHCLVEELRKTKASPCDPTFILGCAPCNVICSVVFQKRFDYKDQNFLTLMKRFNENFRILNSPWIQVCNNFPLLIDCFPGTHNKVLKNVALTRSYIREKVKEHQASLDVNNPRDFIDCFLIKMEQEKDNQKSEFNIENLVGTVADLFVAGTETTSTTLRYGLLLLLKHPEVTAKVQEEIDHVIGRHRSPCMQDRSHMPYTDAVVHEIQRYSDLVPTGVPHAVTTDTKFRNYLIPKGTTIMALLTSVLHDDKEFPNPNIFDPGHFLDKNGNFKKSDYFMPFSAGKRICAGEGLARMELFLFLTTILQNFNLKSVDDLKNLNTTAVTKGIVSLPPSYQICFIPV

Cytochrome P450 3A4 = Cytochrome P450 3A4 (Homo sapiens, UniProt P08684); experiment: Inhibition of CYP3A4 in human liver microsomes; type: ADME, Microsome
Rattus norvegicus [16] = experiment: Antidepressant like activity in sc dosed rat resident-intruder model assessed as effect on total behavior score administered 30 mins prior to test; type: functional; conditions: read-out: ID50 (the source's name)
[17] = target: Sodium-dependent serotonin transporter (Rattus norvegicus, UniProt P31652)
Description: Displacement of [3H]paroxetine from 5HT transporter in rat cortical membrane

[18] = target: T4, 5-hydroxytryptamine receptor 1A (Homo sapiens, UniProt P08908)
T4 sequence (P08908 whole entry): T1 sequence (whole entry)
Description: Antagonist activity at human 5HT1A receptor expressed in CHO cells assessed as stimulation of [35S]GTPgammaS binding

D(3) dopamine receptor, sequence (P35462 whole entry): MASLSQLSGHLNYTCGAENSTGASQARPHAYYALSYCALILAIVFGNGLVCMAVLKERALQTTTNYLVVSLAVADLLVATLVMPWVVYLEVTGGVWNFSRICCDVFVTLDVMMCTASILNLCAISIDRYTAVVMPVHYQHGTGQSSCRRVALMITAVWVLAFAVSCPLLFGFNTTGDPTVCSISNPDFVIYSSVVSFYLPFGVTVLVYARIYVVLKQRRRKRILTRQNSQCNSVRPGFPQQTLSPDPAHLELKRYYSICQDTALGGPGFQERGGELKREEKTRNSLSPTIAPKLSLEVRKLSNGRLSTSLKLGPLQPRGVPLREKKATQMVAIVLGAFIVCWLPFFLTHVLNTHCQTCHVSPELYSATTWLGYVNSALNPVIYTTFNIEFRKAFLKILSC
Cytochrome P450 3A4, sequence (P08684 whole entry): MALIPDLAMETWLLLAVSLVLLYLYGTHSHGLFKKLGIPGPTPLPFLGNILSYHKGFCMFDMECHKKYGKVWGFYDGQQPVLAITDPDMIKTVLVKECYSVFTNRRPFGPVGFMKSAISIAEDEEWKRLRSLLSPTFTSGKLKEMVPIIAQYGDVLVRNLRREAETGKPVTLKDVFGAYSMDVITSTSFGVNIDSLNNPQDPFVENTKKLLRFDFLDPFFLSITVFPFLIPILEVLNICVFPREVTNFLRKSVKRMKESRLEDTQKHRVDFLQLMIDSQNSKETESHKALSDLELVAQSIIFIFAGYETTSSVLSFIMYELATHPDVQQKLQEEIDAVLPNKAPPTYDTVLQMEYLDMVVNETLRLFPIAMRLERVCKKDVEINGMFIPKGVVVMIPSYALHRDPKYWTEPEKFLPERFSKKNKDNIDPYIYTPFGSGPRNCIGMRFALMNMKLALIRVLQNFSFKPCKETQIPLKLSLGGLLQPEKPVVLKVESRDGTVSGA
D(2) dopamine receptor, sequence (P14416 whole entry): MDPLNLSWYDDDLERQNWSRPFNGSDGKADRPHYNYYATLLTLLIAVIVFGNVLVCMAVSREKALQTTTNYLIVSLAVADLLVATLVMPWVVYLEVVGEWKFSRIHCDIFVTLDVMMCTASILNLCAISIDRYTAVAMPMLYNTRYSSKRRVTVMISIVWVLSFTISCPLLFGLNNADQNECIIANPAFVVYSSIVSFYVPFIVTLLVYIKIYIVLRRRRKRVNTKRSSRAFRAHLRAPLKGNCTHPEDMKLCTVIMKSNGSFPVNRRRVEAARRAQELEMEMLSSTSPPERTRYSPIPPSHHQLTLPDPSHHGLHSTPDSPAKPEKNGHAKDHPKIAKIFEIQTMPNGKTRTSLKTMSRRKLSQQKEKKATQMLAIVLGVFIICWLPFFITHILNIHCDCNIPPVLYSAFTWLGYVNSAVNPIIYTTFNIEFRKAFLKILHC
Cytochrome P450 2D6, sequence (P10635 whole entry): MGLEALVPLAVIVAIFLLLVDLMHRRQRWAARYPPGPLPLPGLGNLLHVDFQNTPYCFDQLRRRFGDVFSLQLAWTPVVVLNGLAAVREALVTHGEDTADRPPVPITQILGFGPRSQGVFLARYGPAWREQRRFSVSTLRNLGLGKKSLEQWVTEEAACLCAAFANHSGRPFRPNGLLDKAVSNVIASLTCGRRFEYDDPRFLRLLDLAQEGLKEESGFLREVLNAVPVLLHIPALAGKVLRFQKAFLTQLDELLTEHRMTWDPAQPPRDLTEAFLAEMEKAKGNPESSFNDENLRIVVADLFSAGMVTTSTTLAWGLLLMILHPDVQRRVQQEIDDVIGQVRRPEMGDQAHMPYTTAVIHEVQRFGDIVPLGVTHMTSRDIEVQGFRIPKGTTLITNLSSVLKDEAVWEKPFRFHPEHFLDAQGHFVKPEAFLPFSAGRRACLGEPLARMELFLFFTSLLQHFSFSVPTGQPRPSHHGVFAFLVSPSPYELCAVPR
Sodium-dependent serotonin transporter, sequence (P31652 whole entry): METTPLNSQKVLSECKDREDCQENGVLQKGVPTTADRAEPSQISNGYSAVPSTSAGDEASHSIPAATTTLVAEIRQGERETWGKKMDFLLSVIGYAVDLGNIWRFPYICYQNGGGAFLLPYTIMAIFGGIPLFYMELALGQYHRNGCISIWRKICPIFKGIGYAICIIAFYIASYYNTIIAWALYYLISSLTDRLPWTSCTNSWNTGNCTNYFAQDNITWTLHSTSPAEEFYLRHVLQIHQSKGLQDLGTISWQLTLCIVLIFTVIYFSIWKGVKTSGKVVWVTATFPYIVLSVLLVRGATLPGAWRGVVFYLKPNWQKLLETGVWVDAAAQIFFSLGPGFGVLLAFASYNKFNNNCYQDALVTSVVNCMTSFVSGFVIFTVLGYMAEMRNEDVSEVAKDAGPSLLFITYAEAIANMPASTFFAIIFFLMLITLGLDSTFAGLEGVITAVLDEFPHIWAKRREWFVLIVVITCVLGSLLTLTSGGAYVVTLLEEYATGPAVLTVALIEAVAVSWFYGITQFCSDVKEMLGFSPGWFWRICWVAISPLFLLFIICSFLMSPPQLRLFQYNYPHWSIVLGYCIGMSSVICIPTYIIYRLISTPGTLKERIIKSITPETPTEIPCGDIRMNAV
Cytochrome P450 2C9, sequence (P11712 whole entry): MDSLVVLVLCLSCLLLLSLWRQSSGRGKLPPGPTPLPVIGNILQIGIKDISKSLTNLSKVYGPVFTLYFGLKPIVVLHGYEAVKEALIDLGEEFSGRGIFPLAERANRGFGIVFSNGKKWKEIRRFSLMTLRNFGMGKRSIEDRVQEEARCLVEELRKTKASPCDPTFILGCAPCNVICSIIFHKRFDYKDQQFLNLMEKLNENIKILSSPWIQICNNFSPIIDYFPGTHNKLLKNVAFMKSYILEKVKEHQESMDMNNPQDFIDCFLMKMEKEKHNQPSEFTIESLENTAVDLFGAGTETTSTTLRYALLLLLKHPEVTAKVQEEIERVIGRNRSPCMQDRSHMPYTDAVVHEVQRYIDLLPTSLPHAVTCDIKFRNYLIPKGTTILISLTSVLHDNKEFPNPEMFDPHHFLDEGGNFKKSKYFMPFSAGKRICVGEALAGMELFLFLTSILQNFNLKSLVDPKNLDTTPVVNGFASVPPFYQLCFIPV

## Cc1ccc2c3c(ccc2n1)OC[C@H](CN1CCN(c2ccc4cc(C#N)ccc4n2)CC1)O3
[1]
  Imax: 88.6%
D(2) dopamine receptor
  Ki: 1310 nM
D(3) dopamine receptor
  Ki: 1320 nM
Rattus norvegicus [2]
  C0: 903 ng/mL
[3]
  half-life: 4 h
Rattus norvegicus [4]
  AUC: 1268 ng·h/mL
[5]
  Cmax: 456 ng/mL
[6]
  Tmax: 1.3 h
[7]
  half-life: 3.8 h
[8]
  AUC: 2320 ng·h/mL
[9]
  bioavailability: 61%
[10]
  Cmax: 815 ng/mL
[11]
  half-life: 3.8 h
[12]
  AUC: 4620 ng·h/mL
[13]
  bioavailability: 36%
Rattus norvegicus [14]
  Activity: 71%
Rattus norvegicus [15]
  Activity: Dose-dependent effect
Rattus norvegicus [15]; read-out: ID50 (the source's name)
  ED50: 12.5 mg/kg
Cytochrome P450 2A6
  inhibition (INH): Not Active
Cytochrome P450 2D6
  inhibition (INH): Not Active
Cytochrome P450 2C9
  IC50: 358000 nM
Cytochrome P450 2C8
  IC50: 29000 nM
Cytochrome P450 3A4
  IC50: 10000 nM
Rattus norvegicus [16]
  ED50: > 30 mg/kg
[17]
  Ki: 13.8 nM
[18]
  IC50: 102 nM
